Measurements from ChEMBL document CHEMBL3822440, “Semi-synthesis and antiproliferative evaluation of PEGylated pentacyclic triterpenes” (Eur J Med Chem, 2016).
The source made the active and inactive calls. The rule behind the calls is not given here.

Key:
[1] = test system: HepG2; test: Induction of apoptosis in human HepG2 cells assessed as bubble shaped region in cell surface at cytotoxic IC50 after 72 hrs by Hoechst staining based fluorescence microscopic analysis; type: functional
[2] = test system: HT-29; test: Cell cycle arrest in human HT-29 cells assessed as accumulation at S phase at cytotoxic IC50 after 72 hrs by propidium iodide staining based flow cytometry (reference value: 48.31 +/- 1.49%); type: functional
[3] = test system: B16-F10; test: Induction of apoptosis in mouse B16F10 cells assessed as cell shrinkage at cytotoxic IC50 after 72 hrs by Hoechst staining based fluorescence microscopic analysis; type: functional
[4] = test system: B16-F10; test: Induction of apoptosis in mouse B16F10 cells assessed as chromatin condensation at cytotoxic IC50 after 72 hrs by Hoechst staining based fluorescence microscopic analysis; type: functional, cell-based
[5] = Cell cycle arrest in mouse B16F10 cells assessed as accumulation at G0/G1 phase at cytotoxic IC50 after 72 hrs by propidium iodide staining based flow cytometry (reference value: 50.69 +/- 0.61%); type: functional, B16-F10
[6] = test system: HepG2; test: Induction of apoptosis in human HepG2 cells assessed as spherical cell shape at cytotoxic IC50 after 72 hrs by Hoechst staining based fluorescence microscopic analysis; type: functional
[7] = test system: B16-F10; test: Induction of apoptosis in mouse B16F10 cells assessed as nucleus containing nicked DNA at cytotoxic IC50 after 72 hrs by Hoechst staining based fluorescence microscopic analysis; type: functional, cell-based
[8] = test system: HT-29; test: Cytotoxicity against human HT-29 cells assessed as growth inhibition after 72 hrs by MTT assay; type: functional, cell-based; conditions: HT-29, 72 h
[9] = test system: B16-F10; test: Potency index, ratio of maslinic acid IC50 to compound IC50 for mouse B16F10 cells; type: functional
[10] = test system: B16-F10; test: Induction of apoptosis in mouse B16F10 cells assessed as spherical cell shape at cytotoxic IC50 after 72 hrs by Hoechst staining based fluorescence microscopic analysis; type: functional
[11] = test system: HepG2; test: Induction of apoptosis in human HepG2 cells assessed as nucleus containing nicked DNA at cytotoxic IC50 after 72 hrs by Hoechst staining based fluorescence microscopic analysis; type: functional, cell-based
[12] = test system: HepG2; test: Induction of apoptosis in human HepG2 cells assessed as chromatin condensation at cytotoxic IC50 after 72 hrs by Hoechst staining based fluorescence microscopic analysis; type: functional, cell-based
[13] = test system: HepG2; test: Induction of apoptosis in human HepG2 cells assessed as early apoptotic cells at cytotoxic IC50 after 72 hrs by Annexin V-FITC/propidium iodide staining based flow cytometry (reference value: 0.3 +/- 0.01%); type: functional
[14] = test system: HT-29; test: Induction of apoptosis in human HT-29 cells assessed as late apoptotic cells at cytotoxic IC50 after 72 hrs by Annexin V-FITC/propidium iodide staining based flow cytometry (reference value: 0.65 +/- 0.35%); type: functional
[15] = test system: HepG2; test: Cell cycle arrest in human HepG2 cells assessed as accumulation at G0/G1 phase at cytotoxic IC50 after 72 hrs by propidium iodide staining based flow cytometry (reference value: 39.41 +/- 1.56%); type: functional
[16] = test system: HT-29; test: Cell cycle arrest in human HT-29 cells assessed as accumulation at G2/M phase at cytotoxic IC50 after 72 hrs by propidium iodide staining based flow cytometry (reference value: 6.23 +/- 1.7%); type: functional
[17] = Induction of apoptosis in mouse B16F10 cells assessed as necrotic cells at cytotoxic IC50 after 72 hrs by Annexin V-FITC/propidium iodide staining based flow cytometry (reference value: 0.75 +/- 0.07%); type: functional, B16-F10
[18] = test system: B16-F10; test: Induction of apoptosis in mouse B16F10 cells assessed as disruption of cell membrane integrity at cytotoxic IC50 after 72 hrs by Hoechst staining based fluorescence microscopic analysis; type: functional
[19] = test system: HepG2; test: Induction of apoptosis in human HepG2 cells assessed as loss of nuclear architecture at cytotoxic IC50 after 72 hrs by Hoechst staining based fluorescence microscopic analysis; type: functional, cell-based

Structure (SMILES) | Activity [1] | Activity [2] [%] | Activity [3] | Activity [4] | Activity [5] [%] | Activity [6] | Activity [7] | IC50 [8] [µM] | Ratio IC50 [9] | Activity [10] | Activity [11] | Activity [12] | Activity [13] [%] | Activity [14] [%] | Activity [15] [%] | Activity [16] [%] | Activity [17] [%] | Activity [18] | Activity [19]
CC1(C)CC[C@]2(C(=O)NCCCOCCOCCOCCCN)CC[C@]3(C)C(=CC[C@@H]4[C@@]5(C)C[C@@H](O)[C@H](O)C(C)(C)[C@@H]5CC[C@]43C)[C@@H]2C1 | Active | 7.12 | Active | Active | 66.66 | Active | Active | 11.8 | 3.2 | Active | Active | Active | 46.75 | 7.6 | 40.22 | 13.1 | 0.2 | Active | Active
COCCOCCOCC(=O)O[C@@H]1C[C@]2(C)[C@H]3CC=C4[C@@H]5CC(C)(C)CC[C@]5(C(=O)O)CC[C@@]4(C)[C@]3(C)CC[C@H]2C(C)(C)[C@H]1OC(=O)COCCOCCOC | Active | 4.97 | Active | Active | 87.93 | Active | Active | 39.7 | 0.7 | Active | Active | Active | 14.75 | 0.15 | 58.19 | 0.76 | 0 | Active | Active
